Source: US7186831B2, “5-halo-2-alkyl[1,2,4]triazolo[1,5-a]pyrimidin-7-amines” (priority 2001, dated 2007)

Experiment: log P by HPLC
Type: physicochemical
Details: EEC directive 79/831 Annex V. A8 by HPLC (gradient method, acetonitrile/0.1% aqueous phosphoric acid)

| SMILES | logP |
| --- | --- |
| CC(C)CN(C)c1c(-c2ccccc2Cl)c(Cl)nc2nc(C3CC3)nn12 [compound 497] | 4.41 |
| Cc1nc2nc(Cl)c(-c3ccc(F)cc3F)c(N3CCSCC3)n2n1 [compound 297] | 2.97 |
| Fc1ccc(-c2c(Cl)nc3nc(C4CC4)nn3c2N2CCSCC2)c(F)c1 [compound 519] | 3.58 |
| Cc1nc2nc(Cl)c(-c3ccc(F)cc3F)c(N3CCC(F)CC3)n2n1 [compound 454] | 2.96 |
| Cc1nc2nc(Cl)c(-c3ccc(F)cc3F)c(N3CCC4(CC3)OCCO4)n2n1 [compound 284] | 2.68 |
| C=C(C)CN(CC)c1c(-c2c(F)cc(F)cc2F)c(Cl)nc2nc(C3CC3)nn12 [compound 448] | 4.49 |
| Fc1cc(F)c(-c2c(Cl)nc3nc(C4CC4)nn3c2N2CCCCO2)c(F)c1 [compound 485] | 3.74 |
| Cc1nc2nc(Cl)c(-c3c(F)cccc3Cl)c(N3CC=CCC3)n2n1 [compound 265] | 3.33 |
| CC1CCCCN1c1c(-c2ccccc2Cl)c(Cl)nc2nc(C3CC3)nn12 (centres unmarked) [compound 499] | 4.61 |
| Cc1nc2nc(Cl)c(-c3ccccc3F)c(NC3CCCCC3C(F)(F)F)n2n1 (centres unmarked) [compound 398] | 3.49 |
| C=CCN(CC)c1c(-c2c(F)cccc2Cl)c(Cl)nc2nc(C)nn12 [compound 267] | 3.59 |
| FC(F)(F)C1CCCN1c1c(-c2ccccc2Cl)c(Cl)nc2nc(C3CC3)nn12 (centres unmarked) [compound 501] | 4.41 |
| Cc1nc2nc(Cl)c(-c3c(F)cccc3Cl)c(N3CCC(O)C3)n2n1 (centres unmarked) [compound 278] | 2.02 |
| Fc1cccc(Cl)c1-c1c(Cl)nc2nc(C3CC3)nn2c1NCC1CC1 [compound 482] | 3.4 |
| Cc1nc2nc(Cl)c(-c3ccccc3Cl)c(NCC#N)n2n1 [compound 403] | 2.03 |
| CCC1=CCN(c2c(-c3ccc(F)cc3F)c(Cl)nc3nc(C)nn23)CC1 [compound 290] | 3.94 |

Second part, the molecule after the results:

| logP | SMILES |
| --- | --- |
| 2.98 | Cc1nc2nc(Cl)c(-c3ccccc3F)c(NOCc3ccc(F)cc3)n2n1 [compound 369] |
| 2.85 | C=CC(C)Nc1c(-c2c(F)cc(F)cc2F)c(Cl)nc2nc(C)nn12 (centres unmarked) [compound 417] |
| 3.75 | Cc1nc2nc(Cl)c(-c3c(F)cccc3F)c(NOCc3cc(Cl)cc(Cl)c3)n2n1 [compound 428] |
| 2.7 | Cc1nc2nc(Cl)c(-c3ccccc3F)c(NCCC(F)(F)F)n2n1 [compound 395] |
| 3.12 | CCCN(CCOC)c1c(-c2c(F)cccc2F)c(Cl)nc2nc(C)nn12 [compound 348] |
| 2.85 | Cc1nc2nc(Cl)c(-c3c(F)cccc3F)c(N3CCC(F)CC3)n2n1 [compound 443] |
| 4.08 | Cc1nc2nc(Cl)c(-c3c(F)cccc3F)c(N3CC(C)CC(C)C3)n2n1 (centres unmarked) [compound 310] |
| 3.46 | CCCCN(C)c1c(-c2c(F)cccc2F)c(Cl)nc2nc(C)nn12 [compound 338] |
| 2.31 | CCNc1c(-c2c(F)cccc2F)c(Cl)nc2nc(C)nn12 [compound 419] |
| 3.05 | Cc1ccc(Nc2c(-c3ccc(F)cc3F)c(Cl)nc3nc(C)nn23)cc1 [compound 298] |
| 2.53 | Cc1nc2nc(Cl)c(-c3ccccc3F)c(NCC(F)(F)F)n2n1 [compound 391] |
| 3.01 | Cc1nc2nc(Cl)c(-c3c(F)cccc3F)c(N3CC=CCC3)n2n1 [compound 308] |
| 3.57 | Cc1nc2nc(Cl)c(-c3c(F)cccc3F)c(N3CCCCC3C)n2n1 (centres unmarked) [compound 311] |
| 2.9 | Cc1nc2nc(Cl)c(-c3c(F)cccc3F)c(NOCc3ccc(F)cc3)n2n1 [compound 432] |

Same assay, conditions: HPLC, gradient method, acetonitrile/0.1% aqueous phosphoric acid; EEC directive 79/831 Annex V. A8

| SMILES | logP |
| --- | --- |
| C=C(C)CNc1c(-c2c(F)cc(F)cc2F)c(Cl)nc2nc(CC)nn12 [compound 21] | 3.15 |
| Cc1nc2nc(Cl)c(-c3ccccc3Cl)c(NC(C)C(C)C)n2n1 (centres unmarked) [compound 696] | 3.46 |
| Cc1nc2nc(Cl)c(-c3ccc(F)cc3Cl)c(N3CCCCO3)n2n1 [compound 589] | 3.23 |
| CN(C)C1CCN(c2c(-c3ccc(F)cc3F)c(Cl)nc3nc(C4CC4)nn23)C1 (centres unmarked) [compound 605] | 1.46 |
| OC1CCN(c2c(-c3ccc(F)cc3F)c(Cl)nc3nc(C4CC4)nn23)C1 (centres unmarked) [compound 603] | 2.2 |
| Cc1nc2nc(Cl)c(-c3ccc(F)cc3F)c(N(C)CC(C)C)n2n1 [compound 205] | 3.49 |
| Cc1nc2nc(Cl)c(-c3ccc(Cl)cc3Cl)c(NCC(C)C)n2n1 [compound 789] | 3.68 |
| C=CCN(C)c1c(-c2ccccc2Cl)c(Cl)nc2nc(C)nn12 [compound 220] | 3.19 |
| CCc1nc2nc(Cl)c(-c3c(F)cc(F)cc3F)c(NCC(F)(F)F)n2n1 [compound 5] | 3.06 |
| Fc1cccc(Cl)c1-c1c(Cl)nc2nc(C3CC3)nn2c1N1CCC(F)CC1 [compound 707] | 3.63 |
| Fc1ccc(-c2c(Cl)nc3nc(C4CC4)nn3c2N2CCCC2C(F)(F)F)c(Cl)c1 (centres unmarked) [compound 639] | 4.23 |
| OC1CCN(c2c(-c3ccc(F)cc3F)c(Cl)nc3nc(C4CC4)nn23)CC1 [compound 607] | 2.29 |
| CCc1nc2nc(Cl)c(-c3c(F)cc(F)cc3F)c(NCC#N)n2n1 [compound 23] | 2.27 |
| CCN(CCOC)c1c(-c2ccccc2Cl)c(Cl)nc2nc(C)nn12 [compound 225] | 2.94 |
| CCN(CC)c1c(-c2c(F)cc(F)cc2F)c(Cl)nc2nc(C(F)(F)F)nn12 [compound 33] | 4.25 |
| CCCN(CC1CCCCO1)c1c(-c2ccc(F)cc2F)c(Cl)nc2nc(C3CC3)nn12 (centres unmarked) [compound 599] | 4.71 |
| Cc1nc2nc(Cl)c(-c3ccccc3Cl)c(N3CCCCC3)n2n1 [compound 233] | 3.48 |
| CC1=CCCN(c2c(-c3ccccc3Cl)c(Cl)nc3nc(C)nn23)C1 [compound 231] | 3.7 |
| CCCN(Cc1cccs1)c1c(-c2ccc(F)cc2F)c(Cl)nc2nc(C3CC3)nn12 [compound 601] | 4.64 |
| C#CCN(C)c1c(-c2ccc(F)cc2F)c(Cl)nc2nc(C(F)(F)F)nn12 [compound 539] | 3.65 |

| SMILES | logP |
| --- | --- |
| Fc1cccc(F)c1-c1c(Cl)nc2nc(C3CC3)nn2c1N1CCCCC1 [compound 682] | 3.9 |
| CN(CC1OCCO1)c1c(-c2ccc(F)cc2F)c(Cl)nc2nc(C(F)(F)F)nn12 [compound 540] | 3.62 |
| CCN(CCC#N)c1c(-c2ccc(F)cc2F)c(Cl)nc2nc(C3CC3)nn12 [compound 725] | 3.07 |
| Cc1nc2nc(Cl)c(-c3ccc(F)cc3Cl)c(N[C@@H](C)C(F)(F)F)n2n1 (single isomer, unassigned) [compound 641] | 3.2 |
| CCc1nc2nc(Cl)c(-c3c(F)cc(F)cc3F)c(N3CCSCC3)n2n1 [compound 80] | 3.53 |
| C=C(C)CN(C)c1c(-c2ccccc2Cl)c(Cl)nc2nc(C)nn12 [compound 223] | 3.57 |
| Fc1ccc(-c2c(Cl)nc3nc(C4CC4)nn3c2N2CCCCC2)c(Cl)c1 [compound 635] | 4.37 |
| Cc1nc2nc(Cl)c(-c3c(F)cc(F)cc3F)c(N(C)CCN(C)C)n2n1 [compound 148] | 1.5 |
| Cc1nc2nc(Cl)c(-c3ccc(Cl)cc3Cl)c(N3CCCCO3)n2n1 [compound 817] | 3.67 |
| CC1CN(c2c(-c3ccc(F)cc3F)c(Cl)nc3nc(C4CC4)nn23)CC(C)O1 (centres unmarked) [compound 736] | 3.63 |
| CC1CCCN(c2c(-c3ccc(F)cc3F)c(Cl)nc3nc(C4CC4)nn23)C1 (centres unmarked) [compound 612] | 4.37 |
| CC1CCN(c2c(-c3ccc(F)cc3F)c(Cl)nc3nc(C(F)(F)F)nn23)CC1 [compound 798] | 4.8 |
| CCOC(=O)CN(c1c(-c2ccc(F)cc2F)c(Cl)nc2nc(C3CC3)nn12)C1CC1 [compound 727] | 3.84 |
| CC1C=CC(C)N1c1c(-c2c(F)cccc2Cl)c(Cl)nc2nc(C3CC3)nn12 (centres unmarked) [compound 584] | 4.15 |
| FC(F)CNc1c(-c2ccc(Cl)cc2Cl)c(Cl)nc2nc(C3CC3)nn12 [compound 741] | 3.42 |
| Clc1ccccc1-c1c(Cl)nc2nc(C3CC3)nn2c1NCC1CC1(Cl)Cl (centres unmarked) [compound 745] | 3.78 |
| CCCN(CCOC)c1c(-c2ccc(F)cc2F)c(Cl)nc2nc(C(F)(F)F)nn12 [compound 553] | 4.39 |
| C=C(C)CN(CC)c1c(-c2c(F)cc(F)cc2F)c(Cl)nc2nc(CC)nn12 [compound 15] | 4.34 |
| Cc1nc2nc(Cl)c(-c3c(F)cc(F)cc3F)c(N3CCSC3)n2n1 [compound 112] | 2.84 |
| CC1CCN(c2c(-c3ccc(F)cc3F)c(Cl)nc3nc(C4CC4)nn23)CC1 [compound 613] | 4.41 |

Now from value to molecule:

| logP | SMILES |
| --- | --- |
| 2.63 | Cc1nc2nc(Cl)c(-c3c(F)cccc3F)c(NCCC(F)(F)F)n2n1 [compound 184] |
| 3.11 | COC(=O)C(Nc1c(-c2c(F)cc(F)cc2F)c(Cl)nc2nc(C)nn12)C(C)C (centres unmarked) [compound 118] |
| 2.49 | Cc1nc2nc(Cl)c(-c3c(F)cc(F)cc3F)c(N(C)C)n2n1 [compound 86] |
| 2.85 | Cc1nc2nc(Cl)c(-c3c(F)cc(F)cc3F)c(NCCC(F)(F)F)n2n1 [compound 70] |
| 3.33 | CCN(CC)c1c(-c2c(F)cccc2Cl)c(Cl)nc2nc(C)nn12 [compound 252] |
| 3.37 | Cc1nc2nc(Cl)c(-c3c(F)cccc3F)c(NC3CCCC(C(F)(F)F)C3)n2n1 (centres unmarked) [compound 188] |
| 2.44 | CCNc1c(-c2c(F)cc(F)cc2F)c(Cl)nc2nc(C)nn12 [compound 87] |
| 3.69 | Fc1ccc(Nc2c(-c3ccc(F)cc3F)c(Cl)nc3nc(C(F)(F)F)nn23)cc1 [compound 814] |
| 2.68 | Cc1nc2nc(Cl)c(-c3c(F)cccc3F)c(NOC(C)(C)C)n2n1 [compound 141] |
| 3.63 | Cc1nc2nc(Cl)c(-c3c(F)cc(F)cc3F)c(N(C)CC(C)C)n2n1 [compound 154] |
| 2.86 | Cc1nc2nc(Cl)c(-c3c(F)cc(F)cc3F)c(NCC3CC3)n2n1 [compound 68] |
| 2.62 | CCOC(=O)CN(C)c1c(-c2c(F)cccc2F)c(Cl)nc2nc(C)nn12 [compound 562] |
| 3.03 | Cc1nc2nc(Cl)c(-c3c(F)cc(F)cc3F)c(NC(C)C(F)(F)F)n2n1 (centres unmarked) [compound 113] |
